Assay: Inhibition of human 20S constitutive proteasome beta-2 using Bz-VGR-AMC as substrate after 60 mins by fluorescence assay

Compound | IC50 [nM]
CC(C)C[C@H](NC(=O)[C@H](CC(C)C)NC(=O)[C@@H](N)Cc1ccccc1)C(=O)N[C@@H](Cc1ccc(N)cc1)CS(=O)(=O)F | 220
CC(C)C[C@H](NC(=O)[C@H](CC(C)C)NC(=O)[C@@H](N)Cc1ccccc1)C(=O)N[C@@H](Cc1ccc(CN)cc1)CS(=O)(=O)F | 140
CC(C)C[C@H](NC(=O)[C@H](CC(C)C)NC(=O)[C@@H](N)Cc1ccccc1)C(=O)N[C@@H](CCCCN)CS(=O)(=O)F | 470
CC(C)C[C@H](NC(=O)[C@H](CC(C)C)NC(=O)[C@H](Cc1ccccc1)NC(=O)OCc1ccccc1)C(=O)N[C@@H](CCCNC(=N)N)CS(=O)(=O)F | 150
CC(C)C[C@H](NC(=O)OCc1ccccc1)C(=O)N[C@@H](CC(C)C)C(=O)N[C@@H](CC(C)C)C(=O)N[C@@H](CCCNC(=N)N)CS(=O)(=O)F | 200
CC(C)C[C@H](NC(=O)[C@H](CC(C)C)NC(=O)[C@H](Cc1ccccc1)NC(=O)OC(C)(C)C)C(=O)N[C@@H](CCCNC(=N)N)CS(=O)(=O)F | 700
CC(C)C[C@H](NC(=O)[C@H](CC(C)C)NC(=O)[C@@H](N)Cc1ccccc1)C(=O)N[C@@H](CCCNC(=N)N)CS(=O)(=O)F | 250
CC(=O)N[C@@H](Cc1ccccc1)C(=O)N[C@@H](CC(C)C)C(=O)N[C@@H](CC(C)C)C(=O)N[C@@H](Cc1ccc(CN)cc1)CS(=O)(=O)F | 119
CC(=O)N[C@@H](Cc1ccccc1)C(=O)N[C@@H](CC(C)C)C(=O)N[C@@H](CC(C)C)C(=O)N[C@@H](Cc1ccc(N)cc1)CS(=O)(=O)F | 2100
CC(=O)N[C@@H](Cc1ccccc1)C(=O)N[C@@H](CC(C)C)C(=O)N[C@@H](CC(C)C)C(=O)N[C@@H](CCCCN)CS(=O)(=O)F | 1500
CC(C)C[C@H](NC(=O)[C@H](Cc1ccccc1)N=[N+]=[N-])C(=O)N[C@@H](CC(C)C)C(=O)N[C@@H](CCCCN)CS(=O)(=O)F | 700
CC(=O)N[C@@H](Cc1ccccc1)C(=O)N[C@@H](CC(C)C)C(=O)N[C@@H](CC(C)C)C(=O)N[C@@H](CCCNC(=N)N)CS(=O)(=O)F | 980
CC(C)C[C@H](NC(=O)[C@H](Cc1ccccc1)N=[N+]=[N-])C(=O)N[C@@H](CC(C)C)C(=O)N[C@@H](CCCNC(=N)N)CS(=O)(=O)F | 350

— BindingDB's records for doi:10.1021/acs.jmedchem.8b00685 (University of Glasgow, 2018)
